For this experiment, the target named is T1, T. cruzi oligopeptidase B (rPEP, recombinant 120-kD peptidase) (Trypanosoma cruzi, UniProt Q94795).
T1 sequence (Q94795 1-714): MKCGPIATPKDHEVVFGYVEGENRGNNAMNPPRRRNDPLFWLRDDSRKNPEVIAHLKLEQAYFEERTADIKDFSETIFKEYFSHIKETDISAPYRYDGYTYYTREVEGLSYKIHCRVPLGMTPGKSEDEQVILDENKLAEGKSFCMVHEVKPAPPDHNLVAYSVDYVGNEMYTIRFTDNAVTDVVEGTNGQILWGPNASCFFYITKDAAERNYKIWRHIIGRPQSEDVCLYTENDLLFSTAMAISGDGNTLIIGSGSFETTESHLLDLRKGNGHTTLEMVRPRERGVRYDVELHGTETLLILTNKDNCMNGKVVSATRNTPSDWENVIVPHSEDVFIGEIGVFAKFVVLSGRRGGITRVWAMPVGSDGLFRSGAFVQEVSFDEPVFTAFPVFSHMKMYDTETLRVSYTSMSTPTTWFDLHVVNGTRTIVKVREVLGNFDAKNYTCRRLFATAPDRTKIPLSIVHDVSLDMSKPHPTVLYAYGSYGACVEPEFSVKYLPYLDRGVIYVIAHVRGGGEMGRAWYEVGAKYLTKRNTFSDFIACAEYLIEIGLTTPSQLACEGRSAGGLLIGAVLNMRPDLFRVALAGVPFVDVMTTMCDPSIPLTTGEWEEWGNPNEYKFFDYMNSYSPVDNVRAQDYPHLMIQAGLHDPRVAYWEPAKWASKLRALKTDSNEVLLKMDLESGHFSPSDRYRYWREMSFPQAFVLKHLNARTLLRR
The experiment can be described thus: fluorimetric inhibition of Z-Phe-Arg-AMC hydrolysis. The experiment is classed as biochemical.

The term IC50 denotes the concentration that gives 50% inhibition.

Residues, ends and D or L forms follow the SMILES beside them. *: point of attachment. Cbz = O=C(OCc1ccccc1)*; CH2Cl = ClC*; CH2F = FC*

As to `Cc1ccc(S(=O)(=O)N[C@@H](CCCCN)C(=O)CCl)cc1` [N-α-p-tosyl-l-lysine-chloromethyl ketone], the 50% inhibitory concentration (IC50) worked out at 600 nM. For `N=C(N)NCCC[C@H](NC(=O)[C@H](Cc1ccccc1)NC(=O)OCc1ccccc1)C(=O)CF` [Z-Phe-Arg-fluoromethylketone] (Cbz-Phe-Arg-CH2F) the value was 250 nM; for `O=C(O)c1cc[c]([Hg][Cl])cc1` [p-chloromercuribenzoic acid], 330 nM.

Consider `CC(=O)N[C@@H](CCCNC(=N)N)C(=O)N[C@@H](CCCNC(=N)N)C(=O)CCl` [acetylArg-Arg-chloromethylketone] (Ac-Arg-Arg-CH2Cl), for which the IC50 is 200 nM.

The record behind these values is article PMC2134300 (The Journal of Cell Biology, 1997).
